Laboratory results published in patent US5439928A, “Aromatase inhibiting 4(5)-imidazoles” (Orion-yhtyma Oy, priority 1993, dated 1995).
pIC50: −log10 of the molar value.

Tests used:
[1] = molecular target: desmolase (CSCC); test: Cholesterol side chain cleavage (CSCC, desmolase) inhibition, mitochondrial fraction from human placenta or bovine adrenals; assay type: biochemical; settings: substrate 5 μM, 30 min, 37° C., read-out: IC-50 CSCC (desmolase)
[2] = system: DMBA-induced rat mammary adenocarcinomas; test: Anti-tumour effect in vivo against DMBA-induced rat mammary adenocarcinomas; settings: daily for five weeks, female rats; for Number of tumours decreasing: control 3; for Number of tumours stable: control 21; for Number of tumours increasing: control 42
Experimental: The anti-tumour effect was investigated in vivo against DMBA-induced rat mammary adenocarcinomas by the following method. Mammary adenocarcinoma was induced with DMBA in 50±2 days old female rats. Treatment with the compound under test was started after palpable tumours had appeared. Tumour size and amount of tumours were evaluated once a week. Tumour sizes in the control group, treated with solvent, were compared with the test groups. Daily administration schedule was employed for five weeks and animals were sacrificed. The change in tumour sizes was evaluated. Results were evaluated as changes in the sizes of tumours and divided into three groups, namely increasing, stable and decreasing sizes of tumours.

Structure (SMILES)	pIC50 [1]	also measured
Cc1cccc(C(CCCc2c[nH]cn2)c2ccccc2)c1 (centres unmarked) [Compound 4a, 4-(4-(3-methylphenyl)-4-phenylbutyl]-1H-imidazole]	5.12	
Cc1ccccc1C(CCCc1cncn1Cc1ccccc1)c1ccccc1 (centres unmarked) [Compound 6a, 1-benzyl-5-[4-(2-methylphenyl)-4-phenylbutyl]-1H-imidazole]	4.49	
Cc1ccc(C(CCCc2cncn2Cc2ccccc2)c2ccccc2)cc1 (centres unmarked) [Compound 2a, 1-benzyl-5-[4-(4-methylphenyl)-4-phenylbutyl]-1H-imidazole]	4.30	
Fc1ccc(C(CCCc2c[nH]cn2)c2ccccc2)cc1 (centres unmarked) [Compound 21a, 4-[4-(4-fluorophenyl)-4-phenylbutyl]-1H-imidazole]	4.10	
N#Cc1ccc(C(CCc2ccc(F)cc2)Cc2c[nH]cn2)cc1 (centres unmarked) [Compound 19c, 4-[2-(4-cyanophenyl)-4-(4-fluorophenyl)butyl]-1H-imidazole]	5.18	
Fc1ccc(C(CCc2ccccc2)c2c[nH]cn2)cc1 (centres unmarked) [Compound 9c, 4-[1-(4-fluorophenyl)-3-phenylpropyl]-1H-imidazole]	4.66	
Cc1cc(C)cc(C(CCCc2c[nH]cn2)c2ccccc2)c1 (centres unmarked) [Compound 14a, 4-[4-(3,5-dimethylphenyl)-4-phenylbutyl]-1H-imidazole]	4.19	
Fc1ccc(C(CCCc2c[nH]cn2)c2ccc(F)cc2)cc1 [Compound 23a, 4-[4,4-bis(4-fluorophenyl)butyl]-1H-imidazole]	3.76	
Cc1cccc(C(CCCc2c[nH]cn2)c2cccc(C)c2)c1 [Compound 13a, 4-[4,4-bis(3-methylphenyl)butyl]-1H-imidazole]	4.32	
COc1ccc(CCCCC(c2ccc(F)cc2)c2c[nH]cn2)cc1 (centres unmarked) [Compound 12c, 4-[1-(4-fluorophenyl)-5-(4-methoxyphenyl)pentyl]-1H-imidazole]	4.65	
c1ccc(C(CCCCCc2c[nH]cn2)c2ccccc2)cc1 [Compound 19a, 4-(6,6-diphenylhexyl)-1H-imidazole]	4.21	
Cc1ccc(C(CCCc2c[nH]cn2)c2ccc(C)cc2)cc1 [Compound 17a, 4-[4,4-bis(4-methylphenyl)butyl]-1H-imidazole]	3.96	
Cc1ccc(CCCCC(c2ccc(F)cc2)c2c[nH]cn2)cc1 (centres unmarked) [Compound 4c, 4-[1-(4-fluorophenyl)-5-(4-methylphenyl)pentyl]-1H-imidazole]	3.77	
COc1ccc(C(CCCc2c[nH]cn2)c2ccccc2)cc1 (centres unmarked) [Compound 11a, 4-[4-(4-methoxyphenyl)-4-phenylbutyl]-1H-imidazole]	3.72	
CCc1ccc(C(CCCc2c[nH]cn2)c2ccccc2)cc1 (centres unmarked) [Compound 26a, 4-[4-(4-ethylphenyl)-4-phenylbutyl]-1H-imidazole]	4.19	
Fc1ccccc1C(CCCc1c[nH]cn1)c1ccccc1 (centres unmarked) [Compound 20a, 4-[4-(2-fluorophenyl)-4-phenylbutyl]-1H-imidazole]	4.42	
c1ccc(C(CCCc2c[nH]cn2)c2ccccc2)cc1 [Compound 9a, 4-(4,4-diphenylbutyl)-1H-imidazole]	3.49	Number of tumours decreasing ([2]; 3 mg/kg): 2; Number of tumours stable ([2]; 3 mg/kg): 14; Number of tumours increasing ([2]; 3 mg/kg): 37; Number of tumours decreasing ([2]; 30 mg/kg): 21; Number of tumours stable ([2]; 30 mg/kg): 3; Number of tumours increasing ([2]; 30 mg/kg): 15
Cc1cccc(C(CCCc2cncn2Cc2ccccc2)c2ccccc2)c1 (centres unmarked) [Compound 3a, 1-benzyl-5-[4-(3-methylphenyl)-4-phenylbutyl]-1H-imidazole]	4.42	
Cc1cccc(C(CCCc2c[nH]cn2)c2cc(C)cc(C)c2)c1 (centres unmarked) [Compound 16a, 4-[4-(3,5-dimethylphenyl)-4-(3-methylphenyl)butyl]-1H-imidazole]	4.02	
Cc1cccc(CCCCC(c2ccc(F)cc2)c2c[nH]cn2)c1 (centres unmarked) [Compound 3c, 4-[1-(4-fluorophenyl)-5-(3-methylphenyl)pentyl]-1H-imidazole]	4.24	
O=[N+]([O-])c1ccc(C(CCCc2c[nH]cn2)c2ccc([N+](=O)[O-])cc2)cc1 [Compound 24a, 4-[4,4-bis(4-nitrophenyl)butyl]-1H-imidazole]	4.43	

Structure (SMILES)	pIC50 [1]	also measured
Fc1ccc(C(CCCc2ccccc2)c2c[nH]cn2)cc1 (centres unmarked) [Compound 10c, 4-[1-(4-fluorophenyl)-4-phenylbutyl]-1H-imidazole]	4.51	
c1ccc(CC(CCCc2c[nH]cn2)c2ccccc2)cc1 (centres unmarked) [Compound 8a, 4-(4,5-diphenylpentyl)-1H-imidazole]	4.57	
Cc1ccc(C(CCCc2c[nH]cn2)c2ccccc2)cc1 (centres unmarked) [Compound 1a, 4-[4-(4-methylphenyl)-4-phenylbutyl]-1H-imidazole]	4.02	
Fc1ccc(C(CCCCc2ccccc2)c2c[nH]cn2)cc1 (centres unmarked) [Compound 1c, 4-[1-(4-fluorophenyl)-5-phenylpentyl]-1H-imidazole]	4.72	
COc1cccc(CCCCC(c2ccc(F)cc2)c2c[nH]cn2)c1 (centres unmarked) [Compound 11c, 4-[1-(4-fluorophenyl)-5-(3-methoxyphenyl)pentyl]-1H-imidazole]	4.92	
C(=Cc1c[nH]cn1)CC(c1ccccc1)c1ccccc1 [Compound 22a, 4-(4,4-diphenyl-1-butenyl)-1H-imidazole]	3.78	
Fc1ccc(CCC(c2ccc(F)cc2)c2c[nH]cn2)cc1 (centres unmarked) [Compound 14c, 4-[1,3-bis(4-fluorophenyl)propyl]-1H-imidazole]	4.66	
Cc1cc(C)cc(CCCCC(c2ccc(F)cc2)c2c[nH]cn2)c1 (centres unmarked) [Compound 5c, 4-[5-(3,5-dimethylphenyl)-1-(4-fluorophenyl)-pentyl]-1H-imidazole]	4.10	
Fc1ccc(C(CCc2ccccc2)Cc2c[nH]cn2)cc1 (centres unmarked) [Compound 17c, 4-[2-(4-fluorophenyl)-4-phenylbutyl]-1H-imidazole]	4.55	
c1ccc(CCC(Cc2c[nH]cn2)c2ccccc2)cc1 (centres unmarked) [Compound 16c, 4-(2,4-diphenylbutyl)-1H-imidazole]	4.92	
COc1ccc(C(CCCc2c[nH]cn2)c2ccc(OC)cc2)cc1 [Compound 12a, 4-[4,4-bis(4-methoxyphenyl)butyl]-1H-imidazole]	4.34	
c1ccc(C(CCCCc2c[nH]cn2)c2ccccc2)cc1 [Compound 18a, 4-(5,5-diphenylpentyl)-1H-imidazole]	4.17	
Nc1ccc(C(CCCc2c[nH]cn2)c2ccc(N)cc2)cc1 [Compound 25a, 4-[4,4-bis(4-aminophenyl)butyl]-1H-imidazole]	3.68	
Cc1ccc(C(CCCc2c[nH]cn2)c2ccccc2)cc1C (centres unmarked) [Compound 15a, 4-[4-(3,4-dimethylphenyl)-4-phenylbutyl]-1H-imidazole]	4.41	
c1ccc(CCC(c2ccccc2)c2c[nH]cn2)cc1 (centres unmarked) [Compound 7c, 4-(1,3-diphenylpropyl)-1H-imidazole]	5.12	
Cc1cccc(C)c1CCCCC(c1ccc(F)cc1)c1c[nH]cn1 (centres unmarked) [Compound 13c, 4-[1-(4-fluorophenyl)-5-(2,6-dimethylphenyl)-pentyl]-1H-imidazole]	4.51	
Fc1ccc(CCC(Cc2c[nH]cn2)c2ccc(F)cc2)cc1 (centres unmarked) [Compound 18c, 4-[2,4-bis(4-fluorophenyl)butyl]-1H-imidazole]	4.70	
Fc1ccc(CCCC(c2ccc(F)cc2)c2c[nH]cn2)cc1 (centres unmarked) [Compound 15c, 4-[1,4-bis(4-fluorophenyl)butyl]-1H-imidazole]	4.54	
Cc1ccccc1C(CCCc1c[nH]cn1)c1ccccc1 (centres unmarked) [Compound 5a, 4-[4-(2-methylphenyl)-4-phenylbutyl]-1H-imidazole]	4.54	
Cc1ccccc1CCCCC(c1ccc(F)cc1)c1c[nH]cn1 (centres unmarked) [Compound 2c, 4-[1-(4-fluorophenyl)-5-(2-methylphenyl)pentyl]-1H-imidazole]	4.80	
